Our source for the T/C values is PubChem BioAssay AID328 (DTP/NCI, 2004).

The assay relates to BDF1 mice, P388 leukemia ip, median survival T/C. Nature of the assay: NCI In Vivo Anticancer Drug Screen. Data for tumor model P388 Leukemia (intraperitoneal) in B6D2F1 (BDF1) mice. As to conditions: endpoint: median survival time, higher = longer survival. A digest of the protocol:
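Each value expresses how treatment altered survival: treated-mouse outcome over vehicle-mouse outcome, both groups bearing the transplanted tumour.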

[1] abbreviates: dose: 100.0 mg/kg/injection, schedule: Q01DX009 (ip), vehicle: Klucel (hydroxypropylcellulose) (HPC).
Where [2] appears, read: dose: 200.0 mg/kg/injection, schedule: Q01DX009 (ip), vehicle: Klucel (hydroxypropylcellulose) (HPC).
The mark [3] stands for this setting: dose: 400.0 mg/kg/injection, schedule: Q01DX009 (ip), vehicle: Klucel (hydroxypropylcellulose) (HPC).
Where [4] appears, read: dose: 50.0 mg/kg/injection, schedule: Q04DX003 (ip), vehicle: saline with Tween-80.
[5] abbreviates: dose: 100.0 mg/kg/injection, schedule: Q04DX003 (ip), vehicle: saline with Tween-80.
Setting [6] is: dose: 200.0 mg/kg/injection, schedule: Q04DX003 (ip), vehicle: saline with Tween-80.
[7] abbreviates: dose: 400.0 mg/kg/injection, schedule: Q04DX003 (ip), vehicle: saline with Tween-80.
Setting [8] is: dose: 100.0 mg/kg/injection, schedule: Q01DX009 (ip), vehicle: saline.
Where [9] appears, read: dose: 50.0 mg/kg/injection, schedule: Q01DX009 (ip), vehicle: saline with Tween-80.
Setting [10] is: dose: 100.0 mg/kg/injection, schedule: Q01DX009 (ip), vehicle: saline with Tween-80.
The mark [11] stands for this setting: dose: 200.0 mg/kg/injection, schedule: Q01DX009 (ip), vehicle: saline with Tween-80.
Where [12] appears, read: dose: 50.0 mg/kg/injection, schedule: Q01DX009 (ip), vehicle: saline.
The mark [13] stands for this setting: dose: 25.0 mg/kg/injection, schedule: Q01DX009 (ip), vehicle: saline with Tween-80.
Where [14] appears, read: dose: 6.25 mg/kg/injection, schedule: Q01DX009 (ip), vehicle: saline with Tween-80.
Where [15] appears, read: dose: 12.5 mg/kg/injection, schedule: Q01DX009 (ip), vehicle: saline with Tween-80.

“And” between values parts separate entries of the source, which are not always exact repeats. Equal values may be shown once. Toxic doses and inconclusive results are not listed.

Consider `Cc1ccc(S(=O)(=O)NC(c2ccccc2)(c2ccccc2)c2ccccc2)cc1`, for which the T/C was 113 % of control under setting [1], 109 % of control under setting [2] and 90 % of control under setting [3].

Consider `CN1C(=O)NC(C)(c2cccs2)C1=O` (configuration not stated), for which the T/C was 96 % of control under setting [4], 101 % of control under setting [5], 100 % of control under setting [6] and 94 % of control under setting [7].

As to `Nc1ncnc2nc(-c3ccc(Br)cc3)[nH]c12`, the T/C reads like this: (dose: 100.0 mg/kg/injection, schedule: Q01DX001 (ip), vehicle: saline with Tween-80) 94 % of control; (dose: 200.0 mg/kg/injection, schedule: Q01DX001 (ip), vehicle: saline with Tween-80) 106 % of control.

On to `CCOC(=O)CSc1c([N+](=O)[O-])c(C)nn1C`, for which the T/C was 110 % of control (dose: 3.12 mg/kg/injection, schedule: Q04DX003 (ip), vehicle: water); 100 % of control and 106 % of control (dose: 6.25 mg/kg/injection, schedule: Q04DX003 (ip), vehicle: water); 92 % of control and 104 % of control (dose: 12.5 mg/kg/injection, schedule: Q04DX003 (ip), vehicle: water); 93 % of control (dose: 25.0 mg/kg/injection, schedule: Q01DX009 (ip), vehicle: water); 88 % of control and 100 % of control (dose: 25.0 mg/kg/injection, schedule: Q04DX003 (ip), vehicle: water); 90 % of control (dose: 50.0 mg/kg/injection, schedule: Q01DX009 (ip), vehicle: water). In addition, the T/C (dose: 50.0 mg/kg/injection, schedule: Q04DX003 (ip), vehicle: water) was 97 % of control and 100 % of control and 113 % of control; the T/C (dose: 100.0 mg/kg/injection, schedule: Q01DX009 (ip), vehicle: water) is 93 % of control; the T/C (dose: 100.0 mg/kg/injection, schedule: Q04DX003 (ip), vehicle: water) is 101 % of control and 104 % of control; the T/C (dose: 200.0 mg/kg/injection, schedule: Q01DX009 (ip), vehicle: water) is 101 % of control; the T/C (dose: 200.0 mg/kg/injection, schedule: Q04DX003 (ip), vehicle: water) was 109 % of control; the T/C (dose: 400.0 mg/kg/injection, schedule: Q01DX009 (ip), vehicle: water) was 101 % of control. Moreover, the T/C (dose: 400.0 mg/kg/injection, schedule: Q04DX003 (ip), vehicle: water) was 103 % of control.

With `BrC1(Br)CC1(c1ccccc1)c1ccccc1`, the T/C is 110 % of control under setting [1], 110 % of control under setting [2] and 105 % of control under setting [3].

As for `COC(=O)C(=NO)C(=O)OC`, the T/C is 104 % of control under setting [8]; 96 % of control (dose: 200.0 mg/kg/injection, schedule: Q01DX009 (ip), vehicle: saline); 96 % of control (dose: 400.0 mg/kg/injection, schedule: Q01DX009 (ip), vehicle: saline).

On to `C=C(CNC(C)(C)C)C(=O)c1ccccc1`, for which the T/C was 116 % of control (dose: 3.13 mg/kg/injection, schedule: Q01DX009 (ip), vehicle: saline) and 116 % of control (dose: 6.25 mg/kg/injection, schedule: Q01DX009 (ip), vehicle: saline).

As to `CC1(C)CC(C(N)=O)C(C)(C)N1O` (configuration not stated), the T/C was 109 % of control (dose: 100.0 mg/kg/injection, schedule: Q01DX001 (ip), vehicle: saline); 86 % of control (dose: 200.0 mg/kg/injection, schedule: Q01DX001 (ip), vehicle: saline); 100 % of control (dose: 400.0 mg/kg/injection, schedule: Q01DX001 (ip), vehicle: saline).

Consider `OC/C(=N/Nc1ccc2ccccc2n1)c1ccccc1`, for which the T/C under setting [9] is 114 % of control; the T/C under setting [10] is 117 % of control; the T/C under setting [5] is 94 % of control; the T/C under setting [11] is 115 % of control; the T/C under setting [6] was 102 % of control; the T/C (dose: 400.0 mg/kg/injection, schedule: Q01DX009 (ip), vehicle: saline with Tween-80) is 88 % of control. Under setting [7], the T/C was 101 % of control.

`CC12CCC3C(CCC4=CC(O)CCC43C=O)C1(O)CCC2c1ccc(=O)oc1` (configuration not stated): the T/C reads like this: (dose: 0.11 mg/kg/injection, schedule: Q01DX009 (ip), vehicle: saline + alcohol) 100 % of control; (dose: 0.33 mg/kg/injection, schedule: Q01DX009 (ip), vehicle: saline + alcohol) 95 % of control; (dose: 1.0 mg/kg/injection, schedule: Q01DX009 (ip), vehicle: saline + alcohol) 95 % of control; (dose: 3.0 mg/kg/injection, schedule: Q01DX010 (ip), vehicle: carboxymethylcellulose (CMC)) 95 % of control.

On to `O=C(Nc1ccc([N+](=O)[O-])cc1)OCC#CC#CCOC(=O)Nc1ccc([N+](=O)[O-])cc1`, for which the T/C reads like this: (dose: 50.0 mg/kg/injection, schedule: Q01DX009 (ip), vehicle: Klucel (hydroxypropylcellulose) (HPC)) 100 % of control; under setting [1], 100 % of control.

Regarding `CC1C(=O)OC2CC[N+]3([O-])CC=C(COC(=O)C(C)(O)C1(C)O)C23` (configuration not stated), the T/C was 100 % of control (dose: 100.0 mg/kg/injection, schedule: Q01DX010 (ip), vehicle: saline) and 110 % of control (dose: 400.0 mg/kg/injection, schedule: Q01DX010 (ip), vehicle: saline).

For `COc1ccccc1NC(=S)N(C)C`, the T/C runs as follows: under setting [9], 100 % of control; under setting [4], 113 % of control; under setting [10], 105 % of control; under setting [5], 109 % of control; under setting [11], 110 % of control; under setting [6], 104 % of control.

For the molecule `[N-]=[N+]=C1C=C(c2ccccc2)N=C1c1ccccc1`, the T/C is 109 % of control under setting [12] and 88 % of control under setting [8].

`C=CCOc1ccccc1N/N=C(\Cl)C(=O)OCC`: under setting [9], the T/C was 119 % of control.

For the molecule `COC(=O)C(F)C(Br)C(=O)OC` (configuration not stated), the T/C was 113 % of control under setting [13] and 115 % of control under setting [9].

For `O=C(O)/C=C\c1c[nH]c2nccnc12`, the T/C reads like this: (dose: 12.5 mg/kg/injection, schedule: Q01DX009 (ip), vehicle: saline) 103 % of control; (dose: 25.0 mg/kg/injection, schedule: Q01DX009 (ip), vehicle: saline) 95 % of control; (dose: 25.0 mg/kg/injection, schedule: Q04DX003 (ip), vehicle: saline) 97 % of control; under setting [12], 95 % of control; (dose: 50.0 mg/kg/injection, schedule: Q04DX003 (ip), vehicle: saline) 100 % of control.

Regarding `COc1c(Br)cc(Br)cc1/C=C/[N+](=O)[O-]`, the T/C under setting [14] is 114 % of control, the T/C under setting [15] is 114 % of control and the T/C under setting [13] was 116 % of control.

For the molecule `ClCCN(CCCl)c1ccc(CNCCCNCc2ccc(N(CCCl)CCCl)cc2)cc1`, the T/C reads like this: (dose: 2.5 mg/kg/injection, schedule: Q01DX009 (ip), vehicle: saline sonified) 160 % of control; (dose: 3.75 mg/kg/injection, schedule: Q01DX009 (ip), vehicle: saline sonified) 170 % of control.

Consider `O=C1c2cccc3cc([N+](=O)[O-])cc(c23)C(=O)N1CCN1CCCC1`, for which the T/C was 157 % of control under setting [14] and 177 % of control under setting [15].

As to `O=CNc1ccc(/C=C\c2ccnc3ccccc23)cc1`, the T/C is, setting by setting: (dose: 3.13 mg/kg/injection, schedule: Q01DX009 (ip), vehicle: saline with Tween-80) 111 % of control; under setting [14], 106 % of control; under setting [15], 103 % of control; under setting [9], 94 % of control; under setting [10], 86 % of control; under setting [11], 91 % of control.
